Measured values published in patent publication US8183262B2, “Pyridine derivatives as mGluR2 antagonists” (Hoffmann-La Roche Inc., priority 2007, dated 2012).

| melting point | SMILES |
| --- | --- |
| 216 °C | Nc1ncc(-c2noc(-c3nc(-c4ccc(C(F)(F)F)cc4)cc(C(F)(F)F)n3)n2)cn1 [Example 20, 5-{5-[4-Trifluoromethyl-6-(4-trifluoromethyl-phenyl)-pyrimidin-2-yl]-[1,2,4]oxadiazol-3-yl}-pyrimidin-2-ylamine] |
| 205 °C | Nc1ccc(-c2nc(-c3nc(-c4ccc(C(F)(F)F)cc4)cc(C(F)(F)F)n3)no2)cn1 [Example 21, 5-{3-[4-Trifluoromethyl-6-(4-trifluoromethyl-phenyl)-pyrimidin-2-yl]-[1,2,4]oxadiazol-5-yl}-pyridin-2-ylamine] |
| 191 °C | Nc1ccc(-c2nc(-c3nc(-c4ccc(Cl)cc4)cc(C(F)(F)F)n3)no2)cn1 [Example 22, 5-{3-[4-(4-Chloro-phenyl)-6-trifluoromethyl-pyrimidin-2-yl]-[1,2,4]oxadiazol-5-yl}-pyridin-2-ylamine] |
| 258.5 °C | NS(=O)(=O)c1ccc(-c2nc(-c3nc(-c4ccc(C(F)(F)F)cc4)cc(C(F)(F)F)n3)no2)s1 [Example 23, 5-{3-[4-Trifluoromethyl-6-(4-trifluoromethyl-phenyl)-pyrimidin-2-yl]-[1,2,4]oxadiazol-5-yl}-thiophene-2-sulfonic acid amide] |
| 236.5 °C | NS(=O)(=O)c1ccc(-c2nc(-c3nc(-c4ccc(Cl)cc4)cc(C(F)(F)F)n3)no2)s1 [Example 24, 5-{3-[4-(4-Chloro-phenyl)-6-trifluoromethyl-pyrimidin-2-yl]-[1,2,4]oxadiazol-5-yl}-thiophene-2-sulfonic acid amide] |
| 269 °C | FC(F)(F)c1cc(-c2ccc(Cl)cc2)nc(-n2cnc(-c3ccncc3)c2)n1 [Example 25, 4-(4-Chloro-phenyl)-2-(4-pyridin-4-yl-imidazol-1-yl)-6-trifluoromethyl-pyrimidine] |
| 171 °C | Nc1ccc(-c2cccc(-c3nc(-c4ccc(Cl)cc4)cc(C(F)(F)F)n3)c2)cn1 [Example 27, 5-{3-[4-(4-Chloro-phenyl)-6-trifluoromethyl-pyrimidin-2-yl]-phenyl}-pyridin-2-ylamine] |
| 187.5 °C | FC(F)(F)c1cc(-c2ccc(Cl)cc2)nc(-c2nc(-c3ccncc3)no2)n1 [Example 28, 4-(4-Chloro-phenyl)-2-(3-pyridin-4-yl-[1,2,4]oxadiazol-5-yl)-6-trifluoromethyl-pyrimidine] |
| 168.5 °C | FC(F)(F)c1cc(-c2ccc(Cl)cc2)nc(-c2nc(-c3cccnc3)no2)n1 [Example 29, 4-(4-Chloro-phenyl)-2-(3-pyridin-3-yl-[1,2,4]oxadiazol-5-yl)-6-trifluoromethyl-pyrimidine] |
| 227 °C | Nc1ccc(-c2cc(-c3nc(-c4ccc(Cl)cc4)cc(C(F)(F)F)n3)ccn2)cn1 [Example 30, 4-[4-(4-Chloro-phenyl)-6-trifluoromethyl-pyrimidin-2-yl]-[2,3′]bipyridinyl-6′-ylamine] |
| 226 °C | Nc1ccc(-c2cc(-c3nc(-c4ccc(C(F)(F)F)cc4)cc(C(F)(F)F)n3)ccn2)cn1 [Example 31, 4-[4-Trifluoromethyl-6-(4-trifluoromethyl-phenyl)-pyrimidin-2-yl]-[2,3′]bipyridinyl-6′-ylamine] |
| 253.5 °C | Nc1ccc(-c2cn(-c3nc(-c4ccc(C(F)(F)F)cc4)cc(C(F)F)n3)cn2)cn1 [Example 32, 5-{1-[4-Difluoromethyl-6-(4-trifluoromethyl-phenyl)-pyrimidin-2-yl]-1H-imidazol-4-yl}-pyridin-2-ylamine] |
| 219 °C | Nc1ccc(-c2noc(-c3nc(-c4ccc(C(F)(F)F)cc4)cc(C(F)F)n3)n2)cn1 [Example 36, 5-{5-[4-Difluoromethyl-6-(4-trifluoromethyl-phenyl)-pyrimidin-2-yl]-[1,2,4]oxadiazol-3-yl}-pyridin-2-ylamine] |
| 134 °C | FC(F)(F)c1ccc(-c2cc(C(F)(F)F)nc(-c3cccnc3)n2)cc1 [Example 37, 2-Pyridin-3-yl-4-trifluoromethyl-6-(4-trifluoromethyl-phenyl)-pyrimidine] |
| 132.5 °C | FC(F)c1cc(-c2ccc(C(F)(F)F)cc2)nc(-c2ccncc2)n1 [Example 38, 4-Difluoromethyl-2-pyridin-4-yl-6-(4-trifluoromethyl-phenyl)-pyrimidine] |
| 217.5 °C | NS(=O)(=O)c1cccc(-c2noc(-c3nc(-c4ccc(C(F)(F)F)cc4)cc(C(F)F)n3)n2)c1 [Example 40, 3-{5-[4-Difluoromethyl-6-(4-trifluoromethyl-phenyl)-pyrimidin-2-yl]-[1,2,4]oxadiazol-3-yl}-benzenesulfonamide] |
| 191 °C | Nc1ccc(-c2cccc(-c3nc(-c4ccc(C(F)(F)F)cc4)cc(C(F)F)n3)c2)cn1 [Example 41, 5-{3-[4-Difluoromethyl-6-(4-trifluoromethyl-phenyl)-pyrimidin-2-yl]-phenyl}-pyridin-2-ylamine] |
| 206 to 208 °C | Cc1cc(-c2ccc(Cl)cc2)nc(-n2cnc(-c3ccc(N)nc3)c2)n1 [Example 43, 5-{1-[4-(4-Chloro-phenyl)-6-methyl-pyrimidin-2-yl]-1H-imidazol-4-yl}-pyridin-2-ylamine] |
| 179 to 181 °C | Cc1cc(-c2ccc(Cl)cc2)nc(-n2cnc(-c3cccnc3)c2)n1 [Example 44, 4-(4-Chloro-phenyl)-6-methyl-2-(4-pyridin-3-yl-imidazol-1-yl)-pyrimidine] |

| melting point | SMILES |
| --- | --- |
| 264 to 266 °C | Cc1cc(-c2ccc(Cl)cc2)nc(-n2cnc(-c3cnc(N)nc3)c2)n1 [Example 45, 5-{1-[4-(4-Chloro-phenyl)-6-methyl-pyrimidin-2-yl]-1H-imidazol-4-yl}-pyrimidin-2-ylamine] |
| 230 to 232 °C | Cc1cc(-c2ccc(C(F)(F)F)cc2)nc(-n2cnc(-c3ccc(N)nc3)c2)n1 [Example 46, 5-{1-[4-Methyl-6-(4-trifluoromethyl-phenyl)-pyrimidin-2-yl]-1H-imidazol-4-yl}-pyridin-2-ylamine] |
| 267 to 269 °C | Cc1cc(-c2ccc(C(F)(F)F)cc2)nc(-n2cnc(-c3cnc(N)nc3)c2)n1 [Example 47, 5-{1-[4-Methyl-6-(4-trifluoromethyl-phenyl)-pyrimidin-2-yl]-1H-imidazol-4-yl}-pyrimidin-2-ylamine] |
| 208 to 210 °C | Cc1cc(-c2ccc(C(F)(F)F)cc2)nc(-n2cnc(-c3cccnc3)c2)n1 [Example 48, 4-Methyl-2-(4-pyridin-3-yl-imidazol-1-yl)-6-(4-trifluoromethyl-phenyl)-pyrimidine] |
| 220 to 222 °C | Nc1ccc(-c2cn(-c3nc(-c4ccc(Cl)cc4)cc(C4CC4)n3)cn2)cn1 [Example 49, 5-{1-[4-(4-Chloro-phenyl)-6-cyclopropyl-pyrimidin-2-yl]-1H-imidazol-4-yl}-pyridin-2-ylamine] |
| 180 to 182 °C | Clc1ccc(-c2cc(C3CC3)nc(-n3cnc(-c4cccnc4)c3)n2)cc1 [Example 50, 4-(4-Chloro-phenyl)-6-cyclopropyl-2-(4-pyridin-3-yl-imidazol-1-yl)-pyrimidine] |
| 238 to 240 °C | Nc1ncc(-c2cn(-c3nc(-c4ccc(Cl)cc4)cc(C4CC4)n3)cn2)cn1 [Example 51, 5-{1-[4-(4-Chloro-phenyl)-6-cyclopropyl-pyrimidin-2-yl]-1H-imidazol-4-yl}-pyrimidin-2-ylamine] |
| 188 to 190 °C | Nc1ccc(-c2cn(-c3nccc(-c4ccc(Cl)cc4)n3)cn2)cn1 [Example 52, 5-{1-[4-(4-Chloro-phenyl)-pyrimidin-2-yl]-1H-imidazol-4-yl}-pyridin-2-ylamine] |
| 262 °C | Nc1ccc(-c2cn(-c3nc(-c4cccc(C(F)(F)F)c4)cc(C(F)(F)F)n3)cn2)cn1 [Example 53, 5-{1-[4-Trifluoromethyl-6-(3-trifluoromethyl-phenyl)-pyrimidin-2-yl]-1H-imidazol-4-yl}-pyridin-2-ylamine] |
| 224 to 226 °C | Cc1cc(-c2ccc(C(F)(F)F)cc2)cc(-n2cnc(-c3ccc(N)nc3)c2)n1 [Example 58, 5-{1-[6-Methyl-4-(4-trifluoromethyl-phenyl)-pyridin-2-yl]-1H-imidazol-4-yl}-pyridin-2-ylamine] |
| 130 to 135 °C | Nc1ccc(-c2cccc(-c3cc(-c4ccc(C(F)(F)F)cc4)cc(C4CC4)n3)c2)cn1 [Example 64, 5-{3-[6-Cyclopropyl-4-(4-trifluoromethyl-phenyl)-pyridin-2-yl]-phenyl}-pyridin-2-ylamine] |
| > 250 °C | Nc1ncc(-c2cn(-c3cc(C(F)(F)F)cc(-c4ccc(C(F)(F)F)cc4)n3)cn2)cn1 [Example 66, 5-{1-[4-Trifluoromethyl-6-(4-trifluoromethyl-phenyl)-pyridin-2-yl]-1H-imidazol-4-yl}-pyrimidin-2-ylamine] |
| 161 to 177 °C | Cc1cc(-c2ccc(C(F)(F)F)cc2)cc(-c2cncc(-c3ccc(N)nc3)c2)n1 [Example 67, 6-Methyl-4-(4-trifluoromethyl-phenyl)-[2,3′;5′,3″]terpyridin-6″-ylamine] |
| 248 to 252 °C | Cc1cc(-c2ccc(C(F)(F)F)cc2)cc(-c2cncc(-c3cnc(N)nc3)c2)n1 [Example 68, 5-[6-Methyl-4-(4-trifluoromethyl-phenyl)-[2,3′]bipyridinyl-5′-yl]-pyrimidin-2-ylamine] |
| 207 to 209 °C | Nc1ccc(-c2cncc(-c3cc(-c4ccc(C(F)(F)F)cc4)cc(C4CC4)n3)c2)cn1 [Example 69, 6-Cyclopropyl-4-(4-trifluoromethyl-phenyl)-[2,3′;5′,3″]terpyridin-6″-ylamine] |
| > 245 °C | Cc1cc(-c2ccc(C(F)(F)F)cc2)cc(-c2ccnc(-c3cnc(N)nc3)c2)n1 [Example 76, 5-[6-Methyl-4-(4-trifluoromethyl-phenyl)-[2,4′]bipyridinyl-2′-yl]-pyrimidin-2-ylamine] |
| 172 to 174 °C | Nc1ccc(-c2cc(-c3cc(-c4ccc(C(F)(F)F)cc4)cc(C4CC4)n3)ccn2)cn1 [Example 77, 6-Cyclopropyl-4-(4-trifluoromethyl-phenyl)-[2,4′;2′,3″]terpyridin-6″-ylamine] |
| 242 to 245 °C | Nc1ncc(-c2cc(-c3cc(-c4ccc(C(F)(F)F)cc4)cc(C4CC4)n3)ccn2)cn1 [Example 78, 5-[6-Cyclopropyl-4-(4-trifluoromethyl-phenyl)-[2,4′]bipyridinyl-2′-yl]-pyrimidin-2-ylamine] |
